The values that follow come from PubChem BioAssay (NCI).

Some test systems named below: DLD-1 colon; KM20L2 colon; LXFL 529 NSCLC; SNB-78 CNS; HOP-18 NSCLC; RXF-631 renal; P388 leukemia; P388/ADR leukemia; SN12K1 renal.
What all share (experiment): NCI tumour cell line growth inhibition, 48 h

Molecules are shown by their SMILES. Where “and” joins values, the source holds several entries; their conditions need not be identical. Equal values may be shown once.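 Briefly, cells in 96-well plates were exposed to five compound concentrations for 48 h, and endpoints were estimated by linear interpolation. At the GI50, growth is halved. TGI denotes the concentration required for complete inhibition of growth.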

Consider `CCOC(=O)c1ccn2c(c1)c(C#N)c1nc3ccccc3nc12`, for which the TGI in the test on DLD-1 colon is > 100 µM; with KM20L2 colon, > 100 µM; in the test on LXFL 529 NSCLC, > 100 µM; in the test with SNB-78 CNS it was 57.6 µM.
Turning to `C/C=C1/C(=Cc2[nH]c(C=c3[nH]/c(=C/C4=NC(=O)C(CC)=C4C)c(C)c3CCC(=O)O)c(CCC(=O)O)c2C)NC(=O)C1C` (stereo not drawn), the TGI in the test with DLD-1 colon, in the test on HOP-18 NSCLC, with KM20L2 colon, in the test on LXFL 529 NSCLC, in the test on RXF-631 renal and in the test on SNB-78 CNS was > 50 µM each time.
`COC(=O)/C(=N\N)C(C(=O)C(=O)Nc1nc(=S)[nH][nH]1)c1nc2ccc([N+](=O)[O-])cc2[nH]c1=O` (stereo not drawn): the TGI in the test with DLD-1 colon, in the test with HOP-18 NSCLC, in the test on KM20L2 colon, with LXFL 529 NSCLC, in the test on RXF-631 renal and in the test with SNB-78 CNS was > 100 µM each time.
For the compound `C/C(=C\CC/C=C(\C)CC/C=C(\C)CCC1SC1(C)C)CC/C=C(\C)CCC1OC1(C)C` (stereo not drawn), the TGI in the test on DLD-1 colon, in the test with HOP-18 NSCLC, in the test on KM20L2 colon and in the test with LXFL 529 NSCLC was > 100 µM each time.
For the compound `COc1cc2c(cc1OC)[C@H]1C(COC(=O)Nc3ccccc3)CN1CC2` (stereo partly drawn), the TGI in the test on DLD-1 colon, with HOP-18 NSCLC and in the test with LXFL 529 NSCLC was > 100 µM in each case.
Consider `Cc1cc(C)c(C(=O)C(C)C(c2ccccc2)c2ccc(Cl)cc2)c(C)c1` (stereo not drawn), for which the TGI in the test on DLD-1 colon, in the test on HOP-18 NSCLC, in the test on KM20L2 colon, with LXFL 529 NSCLC and in the test on RXF-631 renal was > 100 µM in each case. The GI50 with KM20L2 colon is > 100 µM and 47.2 µM.
As for `CC(=O)OCC1=CC2CCC3C(C)(CCC[C@]3(C)COC(C)=O)C23CC[C@H]1C3` (stereo partly drawn), the TGI in the test with DLD-1 colon, in the test on HOP-18 NSCLC, in the test with KM20L2 colon, in the test on LXFL 529 NSCLC and in the test with RXF-631 renal was > 100 µM in each case.
Regarding `COC1(C)CNCC(C)(C)NC(=O)C(C)(OC)CNCC(C)(C)NC1=O` (stereo not drawn), the TGI in the test with DLD-1 colon, in the test on HOP-18 NSCLC, in the test with KM20L2 colon, in the test with LXFL 529 NSCLC, in the test with RXF-631 renal and in the test on SNB-78 CNS was > 100 µM each time.
Take `O=S(=O)(CF)OCCCCOS(=O)(=O)CF`: the TGI in the test on HOP-18 NSCLC, with KM20L2 colon, with LXFL 529 NSCLC, with RXF-631 renal and with SNB-78 CNS was > 100 µM in each case.
As to `COC(=O)C(C#N)C1NC(=O)c2ccccc21` (stereo not drawn), the TGI in the test with DLD-1 colon, with HOP-18 NSCLC, in the test on KM20L2 colon, in the test with RXF-631 renal and with SNB-78 CNS was > 100 µM throughout.
Turning to `CCCCCCCCCCCCCCCCCCOCC(O)CO` (stereo not drawn), the TGI in the test with DLD-1 colon is > 25 µM; in the test on HOP-18 NSCLC, > 2.5 µM; in the test on KM20L2 colon, > 25 µM; with P388 leukemia, > 14.1 µM; in the test on P388/ADR leukemia, > 25 µM; in the test on SN12K1 renal, > 25 µM. The TGI in the test with SNB-78 CNS was > 25 µM.
For `CC(=O)OCC1OC(n2c(O)c(N=NC(N)=S)c3ccc([N+](=O)[O-])cc32)C(OC(C)=O)C1OC(C)=O` (stereo not drawn), the TGI in the test with DLD-1 colon, with HOP-18 NSCLC, in the test on KM20L2 colon, with LXFL 529 NSCLC and in the test on SNB-78 CNS was > 100 µM throughout.
Take `CN1C(=O)N(c2nc3ccccc3[nH]2)C(C)(C)C1=O`: the TGI with DLD-1 colon, in the test on HOP-18 NSCLC, with KM20L2 colon, in the test with LXFL 529 NSCLC and with SNB-78 CNS was > 100 µM throughout.
On to `COc1ccc(/C=C/c2nc(=S)[nH][nH]2)cc1OC`, for which the TGI in the test on DLD-1 colon, in the test with KM20L2 colon, with LXFL 529 NSCLC and in the test with SNB-78 CNS was > 100 µM each time.
On to `CCC(=O)CCC1=Nc2nnc(CCCCc3nnc4n3C(=O)C(CCC(=O)CC)=N4)n2C1=O`, for which the TGI in the test with DLD-1 colon, in the test on KM20L2 colon and with LXFL 529 NSCLC was > 100 µM each time.
As to `CCOC(OC1=C(C#N)CCCC1)C(CC)[Se]c1ccccc1[N+](=O)[O-]` (stereo not drawn), the TGI is 35.6 µM in the test with DLD-1 colon; 74.1 µM in the test with HOP-18 NSCLC; 31.4 µM in the test on KM20L2 colon; 89.2 µM in the test with LXFL 529 NSCLC; > 100 µM in the test on SNB-78 CNS.
On to `CC(O)C1OC(n2ccc(=O)[nH]c2=O)CC1n1cncn1` (stereo not drawn), for which the TGI in the test with DLD-1 colon, in the test on KM20L2 colon and in the test with LXFL 529 NSCLC was > 100 µM each time.
In the case of `C[Si](C)(C)/C=C/CN1C(=O)CCC1=O`, the TGI in the test on DLD-1 colon, in the test with HOP-18 NSCLC, in the test with KM20L2 colon, in the test with LXFL 529 NSCLC and in the test on SNB-78 CNS was > 100 µM each time.
With `CC(C)=CCOc1ccc(-c2coc3cc4c(c(O)c3c2=O)C=CC(C)(C)O4)cc1`, the TGI in the test on DLD-1 colon, in the test on KM20L2 colon, in the test with LXFL 529 NSCLC and in the test on SNB-78 CNS was > 100 µM each time.
In the case of `C/C(=N/N)c1sc(-c2nc(C)c(/C(C)=N\N)s2)nc1C`, the TGI in the test on DLD-1 colon, in the test with HOP-18 NSCLC, with KM20L2 colon, with LXFL 529 NSCLC and in the test with SNB-78 CNS was > 100 µM throughout.
As for `O=C1C2C3C=C4c5ccccc5N(c5ccccc5)C4([C@@H]2C(=O)N1c1ccc(F)cc1)[C@H]1C(=O)N(c2ccc(F)cc2)C(=O)[C@@H]31` (stereo partly drawn), the TGI in the test on DLD-1 colon, with HOP-18 NSCLC and with SNB-78 CNS was > 100 µM in each case.
Regarding `CC1OC(CC2C=CCc3c(O)c4c(c(O)c32)C(=O)c2ccccc2C4=O)CC(NC(=O)C(F)(F)F)C1O` (stereo not drawn), the TGI worked out at 20 µM in the test with DLD-1 colon, 55.3 µM in the test on KM20L2 colon, 20.4 µM with LXFL 529 NSCLC and 14.9 µM in the test with SNB-78 CNS.
